Values of other authors as cited in patent publication US8404891B2, “Storage-stable formulation of paracetamol in aqueous solution” (Neogen N.V., priority 2009, dated 2013).

Settings: aqueous solution; K. T. Koshy et al., 1961

pH at which rate of degradation is minimal: ~6
Compound: CC(=O)Nc1ccc(O)cc1 [paracetamol, N-(4-hydroxy-phenyl)acetamide]
